# Read-outs that look alike come from different tables or passages of the source.
# Target: Recombinant human cathepsin S (CatS) (Homo sapiens, UniProt P25774)
# Experiment: Recombinant human cathepsin S (CatS) inhibition assay, fluorogenic substrate Z-Valine-Valine-Arginine-AMC;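 also: Baculovirus-expressed CatS in pH 5.0 sodium acetate buffer with DTT and NaCl, fluorescence read each minute over 20 min, inhibition derived from rate slope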
# Sequence of Recombinant human cathepsin S (CatS) (P25774 115-331): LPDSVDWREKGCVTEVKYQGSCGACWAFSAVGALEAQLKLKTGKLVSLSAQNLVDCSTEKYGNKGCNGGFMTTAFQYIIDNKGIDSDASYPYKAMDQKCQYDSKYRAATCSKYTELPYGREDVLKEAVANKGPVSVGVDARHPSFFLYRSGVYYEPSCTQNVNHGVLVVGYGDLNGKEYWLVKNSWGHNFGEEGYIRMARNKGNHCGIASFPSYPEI
IC50,Compound,IC50 (CatS IC50)
–,"CC(C)CNCc1cccc(CCc2cc(-c3nn(CCCN4CCOCC4)c4c3CN(S(C)(=O)=O)CC4)ccc2Cl)c1 [Example 531, N-{[3-(2-{2-Chloro-5-[5-(methylsulfonyl)-1-(3-morpholin-4-ylpropyl)-4,5,6,7-tetrahydro-1H-pyrazolo[4,3-c]pyridin-3-yl]phenyl}ethyl)phenyl]methyl}-2-methylpropan-1-amine]",640 nM
–,"Cc1ccccc1CNCc1ccc(C#Cc2cc(-c3nn(CCCN4CCSCC4)c4c3CN(C(N)=O)CC4)ccc2Cl)cc1 [Example 532, 3-(4-Chloro-3-{[4-({[(2-methylphenyl)methyl]amino}methyl)phenyl]ethynyl}phenyl)-1-(3-thiomorpholin-4-ylpropyl)-1,4,6,7-tetrahydro-5H-pyrazolo[4,3-c]pyridine-5-carboxamide]",90 nM
–,"COc1ccccc1CNCc1ccc(C#Cc2cc(-c3nn(CCCN4CCSCC4)c4c3CN(C(N)=O)CC4)ccc2Cl)cc1 [Example 533, 3-[4-Chloro-3-({4-[({[2-(methyloxy)phenyl]methyl}amino)methyl]phenyl}ethynyl)phenyl]-1-(3-thiomorpholin-4-ylpropyl)-1,4,6,7-tetrahydro-5H-pyrazolo[4,3-c]pyridine-5-carboxamide]",100 nM
–,"COc1cccc(CNCc2ccc(C#Cc3cc(-c4nn(CCCN5CCSCC5)c5c4CN(C(N)=O)CC5)ccc3Cl)cc2)c1 [Example 534, 3-[4-Chloro-3-({4-[({[3-(methyloxy)phenyl]methyl}amino)methyl]phenyl}ethynyl)phenyl]-1-(3-thiomorpholin-4-ylpropyl)-1,4,6,7-tetrahydro-5H-pyrazolo[4,3-c]pyridine-5-carboxamide]",90 nM
–,"CS(=O)(=O)N1CCc2c(c(-c3ccc(Cl)c(CCc4cccc(CNCc5ccccc5)c4)c3)nn2CCCN2CCOCC2)C1 [Example 535, 1-[3-(2-{2-Chloro-5-[5-(methylsulfonyl)-1-(3-morpholin-4-ylpropyl)-4,5,6,7-tetrahydro-1H-pyrazolo[4,3-c]pyridin-3-yl]phenyl}ethyl)phenyl]-N-(phenylmethyl)methanamine]",640 nM
200 nM,"C[C@@H]1COCCN1CCCn1nc(-c2ccc(Cl)c(C#Cc3ccc(CNCc4ccc(Cl)cc4)cc3)c2)c2c1CCN(S(C)(=O)=O)C2 [Example 536, 1-[4-({2-Chloro-5-[1-{3-[(3R)-3-methylmorpholin-4-yl]propyl}-5-(methylsulfonyl)-4,5,6,7-tetrahydro-1H-pyrazolo[4,3-c]pyridin-3-yl]phenyl}ethynyl)phenyl]-N-[(4-chlorophenyl)methyl]methanamine]",–
–,"CS(=O)(=O)N1CCc2c(c(-c3ccc(Cl)c(C#Cc4ccc(CNCc5ccc(Cl)cc5)cc4)c3)nn2CCCN2CC[S+]([O-])CC2)C1 [Example 537, 1-{4-[(2-Chloro-5-{5-(methylsulfonyl)-1-[3-(1-oxidothiomorpholin-4-yl)propyl]-4,5,6,7-tetrahydro-1H-pyrazolo[4,3-c]pyridin-3-yl}phenyl)ethynyl]phenyl}-N-[(4-chlorophenyl)methyl]methanamine]",280 nM
–,"COc1ccc(CNCc2ccc(C#Cc3cc(-c4nn(CCCN5CCSCC5)c5c4CN(C(N)=O)CC5)ccc3Cl)cc2)cc1 [Example 538, 3-[4-Chloro-3-({4-[({[4-(methyloxy)phenyl]methyl}amino)methyl]phenyl}ethynyl)phenyl]-1-(3-thiomorpholin-4-ylpropyl)-1,4,6,7-tetrahydro-5H-pyrazolo[4,3-c]pyridine-5-carboxamide]",110 nM
–,"C[C@H]1COCCN1CCCn1nc(-c2ccc(Cl)c(C#Cc3ccc(F)c(CNCc4ccccc4)c3)c2)c2c1CCN(S(C)(=O)=O)C2 [Example 539, 1-[5-({2-Chloro-5-[1-{3-[(3S)-3-methylmorpholin-4-yl]propyl}-5-(methylsulfonyl)-4,5,6,7-tetrahydro-1H-pyrazolo[4,3-c]pyridin-3-yl]phenyl}ethynyl)-2-fluorophenyl]-N-(phenylmethyl)methanamine]",210 nM
140 nM,"COc1ccc(C#Cc2cc(-c3nn(CCCN4CCOCC4)c4c3CN(S(C)(=O)=O)CC4)ccc2Cl)cc1CNCc1ccccc1 [Example 540, 1-[5-({2-Chloro-5-[5-(methylsulfonyl)-1-(3-morpholin-4-ylpropyl)-4,5,6,7-tetrahydro-1H-pyrazolo[4,3-c]pyridin-3-yl]phenyl}ethynyl)-2-(methyloxy)phenyl]-N-(phenylmethyl)methanamine]",–
–,"CS(=O)(=O)N1CCc2c(c(-c3ccc(Cl)c(C#Cc4ccc5c(c4)CN[C@@H](C(=O)N4CCOCC4)C5)c3)nn2CCCN2CCOCC2)C1 [Example 541, (3R)-7-({2-Chloro-5-[5-(methylsulfonyl)-1-(3-morpholin-4-ylpropyl)-4,5,6,7-tetrahydro-1H-pyrazolo[4,3-c]pyridin-3-yl]phenyl}ethynyl)-3-(morpholin-4-ylcarbonyl)-1,2,3,4-tetrahydroisoquinoline]",960 nM
–,"NC(=O)N1CCc2c(c(-c3ccc(Cl)c(C#Cc4ccc(CNCc5ccccc5F)cc4)c3)nn2CCCN2CCSCC2)C1 [Example 542, 3-(4-Chloro-3-{[4-({[(2-fluorophenyl)methyl]amino}methyl)phenyl]ethynyl}phenyl)-1-(3-thiomorpholin-4-ylpropyl)-1,4,6,7-tetrahydro-5H-pyrazolo[4,3-c]pyridine-5-carboxamide]",180 nM
–,"CS(=O)(=O)N1CCc2c(c(-c3ccc(Cl)c(C#Cc4ccc(CNCc5ccccc5)c(Cl)c4)c3)nn2CCCN2CCOCC2)C1 [Example 545, 1-[2-Chloro-4-({2-chloro-5-[5-(methylsulfonyl)-1-(3-morpholin-4-ylpropyl)-4,5,6,7-tetrahydro-1H-pyrazolo[4,3-c]pyridin-3-yl]phenyl}ethynyl)phenyl]-N-(phenylmethyl)methanamine]",270 nM
–,"CS(=O)(=O)N1CCc2c(c(-c3ccc(Cl)c(C#Cc4ccc(CNCc5ccc(Cl)cc5)c(Cl)c4)c3)nn2CCCN2CCOCC2)C1 [Example 546, 1-[2-Chloro-4-({2-chloro-5-[5-(methylsulfonyl)-1-(3-morpholin-4-ylpropyl)-4,5,6,7-tetrahydro-1H-pyrazolo[4,3-c]pyridin-3-yl]phenyl}ethynyl)phenyl]-N-[(4-chlorophenyl)methyl]methanamine]",300 nM
120 nM,"NC(=O)N1CCc2c(c(-c3ccc(Cl)c(C#Cc4ccc(C(=O)NCc5ccc(Cl)cc5)cc4)c3)nn2CCCN2CCSCC2)C1 [Example 547, 3-(4-Chloro-3-{[4-({[(4-chlorophenyl)methyl]amino}carbonyl)phenyl]ethynyl}phenyl)-1-(3-thiomorpholin-4-ylpropyl)-1,4,6,7-tetrahydro-5H-pyrazolo[4,3-c]pyridine-5-carboxamide]",–
120 nM,"NC(=O)N1CCc2c(c(-c3ccc(Cl)c(C#Cc4ccc(COCC5CNCCO5)cc4)c3)nn2CCCN2CCSCC2)C1 (centres unmarked) [Example 548, 3-{4-Chloro-3-[(4-{[(morpholin-2-ylmethyl)oxy]methyl}phenyl)ethynyl]phenyl}-1-(3-thiomorpholin-4-ylpropyl)-1,4,6,7-tetrahydro-5H-pyrazolo[4,3-c]pyridine-5-carboxamide]",–
–,"NC(=O)N1CCc2c(c(-c3ccc(Cl)c(C#Cc4ccc(CN5CCC(N6C[C@H](O)CC6=O)CC5)cc4)c3)nn2CCCN2CCSCC2)C1 [Example 549, 3-(4-Chloro-3-{[4-({4-[(4R)-4-hydroxy-2-oxopyrrolidin-1-yl]piperidin-1-yl}methyl)phenyl]ethynyl}phenyl)-1-(3-thiomorpholin-4-ylpropyl)-1,4,6,7-tetrahydro-5H-pyrazolo[4,3-c]pyridine-5-carboxamide]",1010 nM
–,"CSc1ccc(CNCc2ccc(C#Cc3cc(-c4nn(CCCN5CCSCC5)c5c4CN(C(N)=O)CC5)ccc3Cl)cc2)cc1 [Example 550, 3-[4-Chloro-3-({4-[({[4-(methylsulfanyl)phenyl]methyl}amino)methyl]phenyl}ethynyl)phenyl]-1-(3-thiomorpholin-4-ylpropyl)-1,4,6,7-tetrahydro-5H-pyrazolo[4,3-c]pyridine-5-carboxamide]",100 nM
–,"NC(=O)N1CCc2c(c(-c3ccc(Cl)c(C#Cc4ccc(CNCc5ccc(N)cc5)cc4)c3)nn2CCCN2CCSCC2)C1 [Example 551, 3-(3-{[4-({[(4-Aminophenyl)methyl]amino}methyl)phenyl]ethynyl}-4-chlorophenyl)-1-(3-thiomorpholin-4-ylpropyl)-1,4,6,7-tetrahydro-5H-pyrazolo[4,3-c]pyridine-5-carboxamide]",100 nM
–,"NC(=O)N1CCc2c(c(-c3ccc(Cl)c(C#Cc4ccc(C(=O)N5CC[C@@H](O)C5)cc4)c3)nn2CCCN2CCSCC2)C1 [Example 552, 3-{4-Chloro-3-[(4-{[(3R)-3-hydroxypyrrolidin-1-yl]carbonyl}phenyl)ethynyl]phenyl}-1-(3-thiomorpholin-4-ylpropyl)-1,4,6,7-tetrahydro-5H-pyrazolo[4,3-c]pyridine-5-carboxamide]",500 nM
450 nM,"C[C@H]1COCCN1CCCn1nc(-c2ccc(Cl)c(C#Cc3ccc(Cl)c(CNCC(=O)O)c3)c2)c2c1CCNC2 [Example 553, N-[(2-Chloro-5-{[2-chloro-5-(1-{3-[(3S)-3-methylmorpholin-4-yl]propyl}-4,5,6,7-tetrahydro-1H-pyrazolo[4,3-c]pyridin-3-yl)phenyl]ethynyl}phenyl)methyl]glycine]",–
20 nM,"NC(=O)C(=O)N1CCc2c(c(-c3ccc(Cl)c(C#Cc4ccc(Cl)c(C(=O)NCCCO)c4)c3)nn2CCCN2CCSCC2)C1 [Example 554, 5-[(5-{5-[Amino(oxo)acetyl]-1-(3-thiomorpholin-4-ylpropyl)-4,5,6,7-tetrahydro-1H-pyrazolo[4,3-c]pyridin-3-yl}-2-chlorophenyl)ethynyl]-2-chloro-N-(3-hydroxypropyl)benzamide]",–
20 nM,"NC(=O)N1CCc2c(c(-c3ccc(Cl)c(C#Cc4ccc(Cl)c(C(=O)NCCCO)c4)c3)nn2CCCN2CCSCC2)C1 [Example 555, 3-[4-Chloro-3-({4-chloro-3-[(3-hydroxypropyl)carbamoyl]phenyl}ethynyl)phenyl]-1-(3-thiomorpholin-4-ylpropyl)-1,4,6,7-tetrahydro-5H-pyrazolo[4,3-c]pyridine-5-carboxamide]",–

# — patent publication US20080200454A1, “CARBON-LINKED TETRAHYDRO-PYRAZOLO-PYRIDINE MODULATORS OF CATHEPSIN S” (priority 2007, published 2008)
